Like-named read-outs stand apart in the source and are kept apart here.
How the values were obtained:
Assay type in all cases: cell-based
[1] = test system: HeLa (human cervical epithelioid carcinoma) cells; experiment: Cell viability analysis by MTT assay, HeLa; details: for IC50: Homo sapiens, HeLa, MTT, 48 h incubation, read-out: Antiproliferative activity, IC50, HeLa; for Selectivity index, HeLa: ratio of IC50 on normal hFF3 cells to IC50 of HeLa
Protocol: (§1) The target compounds were tested on different lines of tumor cells, HuTu-80 (human duodenal cancer), B16 (mouse melanoma), A549 (human lung adenocarcinoma), KB-3-1 (human squamous cell carcinoma), HeLa (human squamous cell carcinoma of the cervix), as well as on human noncancer cells hFF3.
(§2) Human KB-3-1 epidermoid carcinoma cell line, human HeLa cervical epithelioid carcinoma cell line, human HuTu-80 duodenal cancer cells, human A549 lung carcinoma epithelial cells, mouse B16 melanoma cell line and human hFF3 fibroblast cells were obtained from the Russian Cell Culture Collection (St. Petersburg, Russia) and were cultured in DMEM (hFF3 cells in IMDM) supplemented with 10% (v/v) heat-inactivated fetal bovine serum, penicillin (100 U mL^−1), streptomycin (100 µg mL^−1) and amphotericin ([…]). Cells were maintained in a humidified atmosphere of 5% CO2 at 37 °C.
(§3) All compounds were dissolved in dimethylsulfoxide (DMSO) and stock solutions (10 mmol L^−1) were stored at −20 °C.
(§4) Cells growing in the logarithmic phase were seeded in triplicate in 96-well plates at a density of 5 × 10^3 cells per well for HeLa and HuTu-80 cells, 7 × 10^3 cells per well for KB-3-1 and hFF3, 10 × 10^3 for A549 and 20 × 10^3 for B16. The plates were incubated at 37 °C in a humidified 5% CO2 atmosphere. Cells were allowed to adhere to the surface for 24 h and then tested compounds were added at different concentrations and incubation was continued for 48 h. Then [3-(4,5-dimethylthiazol-2-yl)-2,5-diphenyltetrazolium bromide] (MTT) solution (10 µL, 5 mg mL^−1) was added to each well and the incubation was continued for an additional 3 h. The dark blue formazan crystals formed within the healthy cells were solubilized with DMSO and the absorbance was measured using a Multiscan RC plate reader at 570 nm. The IC50 was determined as the compound concentration required to decrease the A570 to 50% compared to the control (no tested compounds, DMSO) and was determined by interpolation from dose-response curves.

[2] = test system: B16 (mouse melanoma) cells; experiment: Cell viability analysis by MTT assay, B16; details: for IC50: MTT, 48 h incubation, read-out: Antiproliferative activity, IC50, B16; for Selectivity index, B16: ratio of IC50 on normal hFF3 cells to IC50 of B16
Protocol: as §1, §2, §3, §4

[3] = test system: HuTu-80 (human duodenal cancer) cells; experiment: Cell viability analysis by MTT assay, HuTu-80; details: for IC50: Homo sapiens, HuTu80, MTT, 48 h incubation, read-out: Antiproliferative activity, IC50, HuTu80; for Selectivity index, HuTu80: ratio of IC50 on normal hFF3 cells to IC50 of HuTu80
Protocol: as §1, §2, §3, §4

[4] = test system: human noncancer cells hFF3 (fibroblasts); experiment: Cell viability analysis by MTT assay, normal hFF3 cells; details: for IC50: normal cells, MTT, 48 h incubation, read-out: Antiproliferative activity, IC50, hHFF3; for Toxic effect on normal hFF3 cells: concentrations up to 100 μM
Protocol: as §1, §2, §3, §4

[5] = test system: A549 (human lung adenocarcinoma) cells; experiment: Cell viability analysis by MTT assay, A549; details: for IC50: Homo sapiens, A549, MTT, 48 h incubation, read-out: Antiproliferative activity, IC50, A549; for Selectivity index, A549: ratio of IC50 on normal hFF3 cells to IC50 of A549
Protocol: as §1, §2, §3, §4

[6] = test system: KB-3-1 (human epidermoid carcinoma) cells; experiment: Cell viability analysis by MTT assay, KB-3-1; details: for IC50: MTT, 48 h incubation, read-out: Antiproliferative activity, IC50, KB-3-1; for Selectivity index, KB-3-1: ratio of IC50 on normal hFF3 cells to IC50 of KB-3-1
Protocol: as §1, §2, §3, §4

Row | SMILES | IC50 [1] [µM] | Selectivity index, HeLa [1] | IC50 ([2]; Mus musculus, 48 h) [µM] | IC50 [3] [µM] | IC50 ([4]; Homo sapiens, HFF-3, 48 h) [µM] | Toxic effect on normal hFF3 cells [4] | IC50 [5] [µM] | IC50 ([6]; Homo sapiens, KB 3-1, 48 h) [µM] | Selectivity index, KB-3-1 [6] | Selectivity index, A549 [5] | Selectivity index, B16 [2] | Selectivity index, HuTu80 [3] | IC50 [2] [µM] | IC50 [4] [µM] | IC50 [6] [µM]
1 | CCCc1cc2cn(C3C=CC(O)C3)c(=O)nc2o1 (stereo not shown) [Compound 3a, 1-(4′-Hydroxy-2′-cyclopenten-1′-yl)-6-propyl-3H-furano[2,3-d]-pyrimidine-2-one] | 63.4 ± 6.8 | >1.6 | > 100 | > 100 | > 100 | not toxic | > 100 | 40.1 ± 5.2 | >2.5 |  |  |  |  |  | 
2 | CCCCCCc1cc2cn(C3C=CC(O)C3)c(=O)nc2o1 (stereo not shown) [Compound 3c, 1-(4′-Hydroxy-2′-cyclopenten-1′-yl)-6-hexyl-3H-furano[2,3-d]-pyrimidine-2-one] | > 100 |  | > 100 | 100 | > 100 | not toxic | 50.3 ± 6.1 | 45.3 ± 5.1 | >2.2 | >1.9 |  |  |  |  | 
3 | CCCCCCCCc1cc2cn(C3C=CC(O)C3)c(=O)nc2o1 (stereo not shown) [Compound 3d, 1-(4′-hydroxy-2′-cyclopenten-1′-yl)-6-octyl-3Hfurano[2,3-d]-pyrimidine-2-one] | 40.6 ± 3.9 | 1.2 | 46.2 ± 3.4 | 46.3 ± 5.7 | 48.2 ± 5.1 |  | 54.1 ± 6.1 | 47.3 ± 4.2 | 1 | 0.9 | 1 | 1 |  |  | 
4 | CCCCCCCCCCc1cc2cn(C3C=CC(O)C3)c(=O)nc2o1 (stereo not shown) [Compound 3e, 1-(4′-hydroxy-2′-cyclopenten-1′-yl)-6-decyl-3Hfurano[2,3-d]-pyrimidine-2-one] | 4.5 ± 0.9 | 2.6 | 21.3 ± 3.1 | 7.3 ± 2.4 | 11.6 ± 2.1 |  | 36.2 ± 11.3 | 11.2 ± 5.3 | 1 | 0.3 | 0.5 | 1.6 |  |  | 
5 | CCCCCCCCCCCCc1cc2cn(C3C=CC(O)C3)c(=O)nc2o1 (stereo not shown) [Compound 3f, 1-(4′-hydroxy-2′-cyclopenten-1′-yl)-6-dodecyl-3Hfurano[2,3-d]-pyrimidine-2-one] | 2.5 ± 0.3 | 4.1 | 4.5 ± 0.3 | 7.1 ± 0.8 | 10.2 ± 1.8 |  | 10.5 ± 1.9 | 10.2 ± 4.1 | 1 | 1 | 2.3 | 1.4 |  |  | 
6 | O=c1nc2oc(-c3ccccc3)cc2cn1C1C=CC(O)C1 (stereo not shown) [Compound 3g, 1-(4′-Hydroxy-2′-cyclopenten-1′-yl)-6-phenyl-3H-furano[2,3-d]-pyrimidine-2-one] | 45.3 ± 5.1 | >2.2 | > 100 | > 100 | > 100 | not toxic | > 100 | 30.1 ± 4.1 | >3.3 |  |  |  |  |  | 
7 | CC(C)(C)c1ccc(-c2cc3cn(C4C=CC(O)C4)c(=O)nc3o2)cc1 (stereo not shown) [Compound 3h, 1-(4′-Hydroxy-2′-cyclopenten-1′-yl)-6-tertbutylphenyl-3H-furano[2,3-d]-pyrimidine-2-one] | 2.3 ± 0.3 | 2.2 | 10.1 ± 2.3 | 9.9 ± 1.7 | 5.1 ± 0.7 |  | 7.2 ± 0.8 | 1.7 ± 0.2 | 3 | 0.7 | 0.5 | 0.5 |  |  | 
8 | CCCCCc1cc2cn(C3C=CC(O)C3)c(=O)nc2[nH]1 (stereo not shown) [Compound 4b, 1-(4′-Hydroxy-2′-cyclopenten-1′-yl)-6-pentyl-3H-pyrrolo[2,3-d]-pyrimidine-2-one] | 50.1 ± 4.7 | >1.9 | > 100 | 80.4 ± 0.9 | > 100 |  | 45.3 ± 3.9 | 25.2 ± 3.4 | >3.9 | >2.2 |  | >1.2 |  |  | 
9 | CCCCCCc1cc2cn(C3C=CC(O)C3)c(=O)nc2[nH]1 (stereo not shown) [Compound 4c, 1-(4′-Hydroxy-2′-cyclopenten-1′-yl)-6-hexyl-3H-pyrrolo[2,3-d]-pyrimidine-2-one] | 50.7 ± 6.2 | >1.9 | > 100 | 20.4 ± 3.9 | > 100 |  | 35.2 ± 4.1 | 25.6 ± 2.9 | >3.9 | >2.8 |  | >4.9 |  |  | 
10 | CCCCCCCCc1cc2cn(C3C=CC(O)C3)c(=O)nc2[nH]1 (stereo not shown) [Compound 4d, 1-(4′-Hydroxy-2′-cyclopenten-1′-yl)-6-octyl-3H-pyrrolo[2,3-d]-pyrimidine-2-one] | 20.1 ± 1.9 | >4.9 | > 100 | 30.2 ± 2.9 | > 100 |  | 100 | 25.4 ± 3.1 | >3.9 |  |  | >3.3 |  |  | 
11 | CCCCCCCCCCc1cc2cn(C3C=CC(O)C3)c(=O)nc2[nH]1 (stereo not shown) [Compound 4e, 1-(4′-Hydroxy-2′-cyclopenten-1′-yl)-6-decyl-3H-pyrrolo[2,3-d]-pyrimidine-2-one] | 11 ± 2.1 | 5.7 | 25 | 23.4 ± 7.8 | 63 |  | 36.2 ± 6.2 | 18.4 ± 7.1 | 3.4 | 1.7 | 2.5 | 2.6 | 25.1 ± 2.4 | 62.5 ± 8.3 | 
12 | CCCCCCCCCCCCc1cc2cn(C3C=CC(O)C3)c(=O)nc2[nH]1 (stereo not shown) [Compound 4f, 1-(4′-Hydroxy-2′-cyclopenten-1′-yl)-6-dodecyl-3H-pyrrolo[2,3-d]-pyrimidine-2-one] | 3.2 ± 0.4 | 1 | 3.1 ± 0.3 | 3.1 ± 0.4 | 3.4 ± 0.7 |  | 4.5 ± 0.2 | 4.5 ± 0.9 | 0.8 | 0.8 | 1.1 | 1.1 |  |  | 
13 | O=c1nc2[nH]c(-c3ccccc3)cc2cn1C1C=CC(O)C1 (stereo not shown) [Compound 4g, 1-(4′-Hydroxy-2′-cyclopenten-1′-yl)-6-phenyl-3H-pyrrolo[2,3-d]-pyrimidine-2-one] | 90.2 ± 9.6 | >1.1 | > 100 | > 100 | > 100 | not toxic | 50.2 ± 6.7 | 45.4 ± 5.3 | >2.2 | >2 |  |  |  |  | 
14 | CC(C)(C)c1ccc(-c2cc3cn(C4C=CC(O)C4)c(=O)nc3[nH]2)cc1 (stereo not shown) [Compound 4h, 1-(4′-Hydroxy-2′-cyclopenten-1′-yl)-6-(4-tertbutylphenyl)-3H-pyrrolo[2,3-d]-pyrimidine-2-one] | 25.8 ± 4.6 | 2.7 | 35 | 25.4 ± 3.1 | 70 |  | 25.3 ± 2.9 | 15 | 4.6 | 2.8 | 1.9 | 2.8 | 35.6 ± 4.2 | 70.9 ± 9.1 | 15.3 ± 1.1

Reference: publication PMC6222425, “Novel 5′-Norcarbocyclic Derivatives of Bicyclic Pyrrolo- and Furano[2,3-d]Pyrimidine Nucleosides” (Molecules : A Journal of Synthetic Chemistry and Natural …, 2018)
